Measurements as given in EP4603105A1, “PHARMACEUTICAL COMPOSITION CONTAINING CYCLIC COMPOUND HAVING SELECTIVE KRAS INHIBITORY EFFECT AGAINST HRAS AND NRAS” (CHUGAI SEIYAKU KABUSHIKI KAISHA, priority 2022, dated 2024).
Where a SMILES comes first, the peptide text is derived from it. Bridges are numbered along the chain shown (N, C = ends). [ ]: non-standard residue; d: D form. The star is where a group is joined. hPhe(3,5-F2-4-CF3) = N[C@@H](CCc1cc(F)c(C(F)(F)F)c(F)c1)C(=O)O; NPrPhe(4-CF3) = CCCN[C@@H](Cc1ccc(C(F)(F)F)cc1)C(=O)O; NMeGly(cPent) = CN[C@H](C(=O)O)C1CCCC1; NMeD = CN[C@@H](CC(=O)O)C(=O)O; NMeL = CN[C@@H](CC(C)C)C(=O)O; αMeS = C[C@](N)(CO)C(=O)O; Morpholide = C1CN(*)CCO1; Aze = O=C(O)[C@@H]1CCN1; Sar = CNCC(=O)O; Allyl = C=CC*

Assays:
[1] = molecular target: GDP-bound KRAS wild-type protein (Homo sapiens, UniProt P01116); assay: Binding to KRAS by surface plasmon resonance (SPR), dissociation constant KD
Sequence of GDP-bound KRAS wild-type protein (P01116 1-188 isoform P01116-2): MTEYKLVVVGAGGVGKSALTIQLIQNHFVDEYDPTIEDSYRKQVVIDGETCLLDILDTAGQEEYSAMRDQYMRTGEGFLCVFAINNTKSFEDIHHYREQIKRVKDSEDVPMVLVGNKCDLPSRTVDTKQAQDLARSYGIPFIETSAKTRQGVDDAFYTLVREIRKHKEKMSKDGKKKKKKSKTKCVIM
In short: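 Read-out is KD from 1:1 fitting of single-cycle kinetics sensorgrams, blank-cycle and reference-surface corrected. Proteins were GDP-loaded, biotinylated Avi-fusions freshly captured each cycle at roughly 100–300 RU. Runs were at 30°C in HBS pH 7.4 with MgCl2, GDP and 4% DMSO.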

[2] = molecular target: GDP-bound NRAS wild-type protein (Homo sapiens, UniProt P01111); assay: Binding to NRAS by surface plasmon resonance (SPR), KD and KD ratio to KRAS
Sequence of GDP-bound NRAS wild-type protein (P01111 whole entry): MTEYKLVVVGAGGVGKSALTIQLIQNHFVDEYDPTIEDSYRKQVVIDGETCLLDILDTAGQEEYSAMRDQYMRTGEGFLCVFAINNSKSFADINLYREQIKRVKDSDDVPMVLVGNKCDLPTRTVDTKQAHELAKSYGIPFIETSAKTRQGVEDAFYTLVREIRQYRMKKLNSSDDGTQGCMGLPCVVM
In short: (§1)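 Recombinant RAS proteins bearing a biotinylated Avi tag and loaded with GDP served as the captured ligand, recaptured fresh every cycle. Binding responses were referenced to an uncoated surface and a buffer-only blank cycle. Dissociation constants were obtained by 1:1 model fitting at 30°C.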

HRAS wild-type protein = HRAS wild-type protein (Homo sapiens, UniProt P01112); assay: Binding to HRAS by surface plasmon resonance (SPR), KD and KD ratio to KRAS
Sequence of HRAS wild-type protein (P01112 whole entry): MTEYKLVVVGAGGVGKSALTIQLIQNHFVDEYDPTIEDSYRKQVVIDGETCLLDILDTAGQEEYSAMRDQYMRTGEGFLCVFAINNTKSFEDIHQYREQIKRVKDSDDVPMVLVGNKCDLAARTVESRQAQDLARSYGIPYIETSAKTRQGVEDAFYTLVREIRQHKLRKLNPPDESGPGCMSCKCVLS
In short: as §1

[3] = system: human lung cancer strain NCI-H441; type: cell-based
In short: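 Signal came from […] measured per well once the reagent was added. Beforehand, cells were cultured at 37°C and 5% carbon dioxide on a compound series serially diluted in dimethyl sulfoxide.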

[4] = Single Cycle Kinetics, 1:1 binding model
[5] = ratio of KD for GDP-bound NRAS wild-type protein to KD for KRAS
[6] = ratio of KD for HRAS wild-type protein to KD for KRAS

| Kd [1, 4] | IC50 [3] | Kd ([1]; Single Cycle Kinetics) | Kd ([1]; 1:1 binding model) | SMILES | NRAS /KRAS ([2]; ratio of the KD value with respect to GDP-bound NRAS wild-type protein to the KD value with respect to KRAS) | HRAS /KRAS (HRAS wild-type protein; ratio of the KD value with respect to HRAS wild-type protein to the KD value with respect to KRAS) | NRAS /KRAS ([2]; ratio of KD value for GDP-bound NRAS wild-type protein to KD value for KRAS (SPR)) | HRAS /KRAS (HRAS wild-type protein; ratio of KD value for HRAS wild-type protein to KD value for KRAS (SPR)) | NRAS /KRAS [2, 5] | HRAS /KRAS (HRAS wild-type protein; [6]) |
| --- | --- | --- | --- | --- | --- | --- | --- | --- | --- | --- |
| 0.14 nM | 5.4 nM | – | – | CC[C@H](C)[C@@H]1NC(=O)[C@H](CC(C)C)N(C)C(=O)C[C@@H](C(=O)N2CCOCC2)N(C)C(=O)[C@H](C2CCCC2)N(C)C(=O)C2(CCCC2)NC(=O)[C@@H]2CCCN2C(=O)[C@H](CCc2ccc(C(F)(F)F)c(Cl)c2)NC(=O)CN(C)C(=O)[C@H](Cc2ccc(C)cc2)N2CC=CC[C@@H](C2=O)N(C)C(=O)CN(C)C1=O [PP0460] | C (A compound having a KD ratio of 0.1 or more and less than 3 is denoted as C) | C (A compound having a KD ratio of 0.1 or more and less than 3 is denoted as C) | – | – | – | – |
| 0.3 nM | 19.2 nM | – | – | CCO[C@@H]1C[C@H]2C(=O)NC3(CCC3)C(=O)N(C)[C@@H](C3CCCC3)C(=O)N(C)[C@H](C(=O)N(CC)CC)CC(=O)N(C)[C@@H](CC(C)C)C(=O)N[C@@H]([C@@H](C)CC)C(=O)N(C)CC(=O)N(C)[C@H]3C/C=C\CCN(C3=O)[C@@H](Cc3ccc(C)cc3)C(=O)N(C)CC(=O)N[C@@H](CCc3ccc(C(F)(F)F)c(OC)c3)C(=O)N2C1 [PP1887] | – | – | A (a compound having 10 or more and less than 20 is denoted as A) | B (a compound having 3 or more and less than 10 is denoted as B) | – | – |
| – | 24.3 nM | 0.67 nM | – | CCO[C@@H]1C[C@H]2C(=O)NC3(CCC3)C(=O)N(C)[C@@H](C3CCCC3)C(=O)N(C)[C@H](C(=O)N3CCOCC3)CC(=O)N(C)[C@@H](COCC(F)(F)F)C(=O)N[C@@H]([C@@H](C)CC)C(=O)N(C)CC(=O)N(C)[C@H]3CCCCCN(C3=O)[C@@H](Cc3ccc(C(F)(F)F)cc3)C(=O)N(C)CC(=O)N[C@@H](CCc3cc(F)c(C(F)(F)F)c(F)c3)C(=O)N2C1 [PP0853] | – | – | – | – | B (a compound having 3 or more and less than 10 is denoted as B) | B (a compound having 3 or more and less than 10 is denoted as B) |
| – | 527 nM | 7.8 nM | – | C=CCOC[C@]1(C)NC(=O)[C@@H]2CCCN2C(=O)[C@H](CCc2cc(F)c(C(F)(F)F)c(F)c2)NC(=O)CN(C)C(=O)[C@H](Cc2ccc(C(F)(F)F)cc2)N(CCC)C(=O)CN(C)C(=O)[C@@H]2CCN2C(=O)[C@H]([C@@H](C)CC)NC(=O)[C@H](CC(C)C)N(C)C(=O)C[C@@H](C(=O)N2CCOCC2)N(C)C(=O)[C@H](C2CCCC2)N(C)C1=O [PP0780] ([NMeL]I[Aze][Sar][NPrPhe(4-CF3)][Sar][hPhe(3,5-F2-4-CF3)]P[αMeS](Allyl)[NMeGly(cPent)][NMeD]-Morpholide; lactam N-11) | – | – | – | – | B (a compound having 3 or more and less than 10 is denoted as B) | B (a compound having 3 or more and less than 10 is denoted as B) |
| – | 8.7 nM | – | 0.34 nM | CCO[C@@H]1C[C@H]2C(=O)NC3(CCC3)C(=O)N(C)[C@@H](C(CC)CC)C(=O)N(C)[C@H](C(=O)N(C)C)CC(=O)N(C)[C@H]3CCCC/C=C/c4ccc(cc4)C[C@@H](C(=O)N(C)CC(=O)N[C@@H](CCc4ccc(Cl)c(Cl)c4)C(=O)N2C1)N1CC/C=C\C[C@@H](C1=O)N(C)C(=O)CN(C1CC1)C(=O)[C@H]([C@@H](C)CC)NC3=O [PP2605] | – | – | – | – | AA (a compound having 20 or more is denoted as AA) | A (a compound having 10 or more and less than 20 is denoted as A) |
| – | 56.4 nM | – | 0.84 nM | CCO[C@@H]1C[C@H]2C(=O)NC3(CC(C)(C)C3)C(=O)N(C)[C@@H](C3CCCC3)C(=O)N(C)[C@H](C(=O)N(C)CC)CC(=O)N(C)[C@@H](CC(C)C)C(=O)N[C@@H]([C@@H](C)CC)C(=O)N(C)CC(=O)N(C)[C@H]3C/C=C\CCN(C3=O)[C@@H](Cc3ccc(C(F)F)cc3)C(=O)N(C)CC(=O)N[C@@H](CCc3cc(F)c4c(c3)CCC4)C(=O)N2C1 [PP3149] | – | – | – | – | A (a compound having 10 or more and less than 20 is denoted as A) | A (a compound having 10 or more and less than 20 is denoted as A) |
| – | 9.8 nM | – | 0.25 nM | CCO[C@@H]1C[C@H]2C(=O)NC3(CC(C)(C)C3)C(=O)N(C)[C@@H](C3CCCC3)C(=O)N(C)[C@H](C(=O)N(C)CC)CC(=O)N(C)[C@@H](CC(C)C)C(=O)N[C@@H]([C@@H](C)CC)C(=O)N(C)CC(=O)N(C)[C@H]3C/C=C\CCN(C3=O)[C@@H](Cc3ccc(C(F)F)cc3)C(=O)N(C)CC(=O)N[C@@H](CCc3ccc(C(F)(F)F)c(CC)c3)C(=O)N2C1 [PP3141] | – | – | – | – | A (a compound having 10 or more and less than 20 is denoted as A) | A (a compound having 10 or more and less than 20 is denoted as A) |
